Source: the CheMixHub viscosity set

Test: xn = mol fraction of the nth substance listed

CNCCO + O
viscosity [mPa·s]
Settings | 293.15 K | 298.15 K | 303.15 K | 308.15 K | 313.15 K | 318.15 K | 323.15 K
100 kPa, x2 = 0.51 | 26.3 | – | – | – | 9.61 | – | 6.36
101 kPa, x1 = 0.0844 | – | – | 2.541 | 2.165 | 1.868 | 1.625 | –
101 kPa, x1 = 0.1894 | – | – | 6.505 | 5.276 | 4.347 | 3.612 | –
101 kPa, x1 = 0.3001 | – | – | 11.33 | 8.968 | 7.206 | 5.87 | –
101 kPa, x1 = 0.4014 | – | – | 14.46 | 11.33 | 9.042 | 7.311 | –
101 kPa, x1 = 0.448 | – | – | 15.21 | 11.93 | 9.52 | – | –
101 kPa, x1 = 0.5016 | – | – | 15.62 | 12.24 | 9.767 | – | –
101 kPa, x1 = 0.5474 | – | – | 15.45 | 12.14 | 9.666 | – | –
101 kPa, x1 = 0.6004 | – | – | 15.17 | 11.95 | 9.57 | – | –
101 kPa, x1 = 0.7021 | – | – | 13.66 | 10.84 | 8.761 | – | –
101 kPa, x1 = 0.7975 | – | – | 11.89 | 9.564 | 7.81 | – | –
101 kPa, x1 = 0.9048 | – | – | 10.09 | 8.218 | 6.771 | – | –
101.3 kPa, x1 = 0.0125 | 1.234 | 1.086 | 0.963 | 0.863 | 0.778 | 0.705 | 0.644
101.3 kPa, x1 = 0.138 | 6.87 | 5.53 | 4.42 | 3.65 | 3.07 | 2.61 | 2.25
101.3 kPa, x1 = 0.265 | 16.7 | 12.81 | – | 7.99 | 6.46 | 5.31 | 4.41
101.3 kPa, x2 = 0.3167 | 22.4 | 17.24 | 13.51 | 10.76 | 8.699 | 7.129 | 5.914
101.3 kPa, x2 = 0.5104 | 27.48 | 20.95 | 16.28 | 12.83 | 10.25 | 8.308 | 6.794
101.3 kPa, x2 = 0.641 | 22.98 | 17.41 | 13.47 | 10.6 | 8.484 | 6.887 | 5.67
101.3 kPa, x2 = 0.7356 | 17.61 | – | 10.58 | 8.433 | 6.828 | 5.626 | 4.688
101.3 kPa, x2 = 0.8064 | 10.8 | 8.438 | 6.716 | 5.451 | 4.498 | 3.765 | 3.181
101.3 kPa, x2 = 0.8623 | 6.917 | 5.549 | 4.52 | 3.745 | 3.143 | 2.663 | 2.282
101.3 kPa, x2 = 0.9067 | 4.02 | – | 2.789 | 2.363 | 2.02 | 1.75 | 1.536
101.3 kPa, x2 = 0.9434 | 2.462 | 2.089 | 1.794 | 1.557 | 1.364 | 1.206 | 1.076
101.3 kPa, x2 = 0.974 | 1.532 | 1.334 | 1.172 | 1.041 | 0.929 | 0.838 | 0.759
101.33 kPa, x1 = 0.01 | – | 1.089 | 0.97 | – | 0.785 | – | –
101.33 kPa, x1 = 0.0217 | – | 1.366 | 1.198 | – | 0.949 | – | –
101.33 kPa, x1 = 0.0333 | – | 1.692 | 1.469 | – | 1.133 | – | –
101.33 kPa, x1 = 0.0467 | – | 2.146 | 1.836 | – | 1.384 | – | –
101.33 kPa, x1 = 0.0622 | – | 2.759 | 2.315 | – | – | – | –
101.33 kPa, x1 = 0.0772 | – | 3.465 | 2.815 | – | 2.049 | – | –
101.33 kPa, x1 = 0.1167 | – | 5.735 | 4.525 | – | 3.075 | – | –
101.33 kPa, x1 = 0.1656 | – | 9.455 | 7.046 | – | 4.573 | – | –
101.33 kPa, x1 = 0.2308 | – | 14.59 | 10.71 | – | 6.551 | – | –
101.33 kPa, x1 = 0.3169 | – | 19.66 | 14.66 | – | 8.805 | – | –
101.33 kPa, x1 = 0.3893 | – | 21.8 | 16.85 | – | 10.24 | – | –
101.33 kPa, x1 = 0.449 | – | 22.25 | 17.79 | – | 10.9 | – | –
101.33 kPa, x1 = 0.5356 | – | 22.31 | 17.99 | – | 11.21 | – | –
101.33 kPa, x1 = 0.6845 | – | 21.05 | 16.24 | – | 10.16 | – | –
101.33 kPa, x1 = 0.8213 | – | 17.45 | 13.21 | – | 8.401 | – | –
101.33 kPa, x1 = 0.9202 | – | 13.96 | 11 | – | 7.227 | – | –
101.33 kPa, x1 = 0.956 | – | 12.96 | 10.26 | – | 6.823 | – | –

NCCCC[C@H](N)C(=O)[O-].[K+] + O
viscosity [mPa·s]
Settings | 293.15 K | 298.15 K | 303.15 K | 308.15 K | 313.15 K | 318.15 K | 323.15 K
100 kPa, x1 = 0.01 | – | 1.138 | – | – | – | – | –
100 kPa, x1 = 0.02 | – | 1.642 | – | – | – | – | –
101.3 kPa, x1 = 0.00479 | 1.183 | 1.051 | 0.9411 | 0.847 | 0.7675 | 0.7007 | 0.6435
101.3 kPa, x1 = 0.00923 | 1.393 | 1.226 | 1.092 | 0.9834 | 0.8868 | 0.8069 | 0.7376
101.3 kPa, x1 = 0.015 | 1.599 | 1.408 | 1.251 | 1.12 | 1.01 | 0.916 | 0.8358
101.3 kPa, x1 = 0.01985 | 1.92 | 1.683 | 1.49 | 1.328 | 1.194 | 1.077 | 0.9784
101.3 kPa, x1 = 0.03254 | 2.783 | 2.408 | 2.108 | 1.861 | 1.655 | 1.483 | 1.337
101.3 kPa, x1 = 0.0375 | 2.961 | 2.59 | 2.233 | 1.989 | 1.744 | 1.577 | 1.404
101.3 kPa, x1 = 0.0395 | – | – | 1.868 | – | 1.448 | – | 1.128
101.3 kPa, x1 = 0.04425 | 4.174 | – | 3.071 | – | 2.351 | 2.094 | 1.872
101.3 kPa, x1 = 0.0501 | 4.177 | 3.576 | 3.074 | 2.687 | 2.353 | 2.092 | 1.861
101.3 kPa, x1 = 0.0595 | – | – | 3.237 | – | 2.45 | – | 1.863
101.3 kPa, x1 = 0.06157 | 6.645 | 5.544 | 4.71 | 4.049 | 3.517 | 3.081 | 2.722
101.3 kPa, x1 = 0.0617 | 5.683 | 4.806 | 4.086 | 3.537 | 3.072 | 2.71 | 2.394
101.3 kPa, x1 = 0.0705 | 7.066 | 5.922 | 4.999 | 4.299 | 3.709 | 3.251 | 2.858
101.3 kPa, x1 = 0.0741 | 7.638 | 6.379 | 5.359 | 4.594 | 3.949 | 3.453 | 3.025
101.3 kPa, x1 = 0.0855 | – | – | 4.606 | – | 3.452 | – | 2.598
